Reference: ChEMBL document CHEMBL1153672, “Synthesis and biological activity of a novel class of cephalosporins with a oxadiazolyl hydroxypyridone moiety at C-7” (1995)
Values after ≈ are worked out from the molar mass of the structure shown.

Assays:
Format in all cases: functional
Pseudomonas aeruginosa [1] = test: In vitro antibacterial activity against Pseudomonas aeruginosa E-2
Pseudomonas aeruginosa [2] = test: In vitro antibacterial activity against Pseudomonas aeruginosa IFO12689
Escherichia coli = test: In vitro antibacterial activity against Escherichia coli ML4707
Staphylococcus aureus = test: In vitro antibacterial activity against Staphylococcus aureus Smith
Mus musculus [3] = test: Tested in vivo for the therapeutic efficacy against systemic infection caused by Pseudomonas aeruginosa E-2 in mice at a challenge dose of 8*10e4 (cfu/mouse) + 5%mucin
Mus musculus [4] = species: Mus musculus; test: Tested for the therapeutic efficacy against systemic infection caused by Pseudomonas aeruginosa E-2 in mice at a challenge dose of 7.9*10e4 (cfu/mouse) + 5%mucin
Pseudomonas aeruginosa [5] = test: In vitro for the antibacterial activity against Pseudomonas aeruginosa E-2
Mus musculus [6] = test: Tested in vivo for the therapeutic efficacy against systemic infection caused by Staphylococcus aureus Smith in mice at a challenge dose of 3.3*10e6 (cfu/mouse) + 5%mucin
Mus musculus [7] = test: Tested in vivo for the therapeutic efficacy against systemic infection caused by Staphylococcus aureus Smith in mice at a challenge dose of 5*10e6 (cfu/mouse) + 5%mucin

Compound | MIC (Pseudomonas aeruginosa [1]) [µg/mL] | MIC (Pseudomonas aeruginosa [2]) [µg/mL] | MIC (Escherichia coli) [µg/mL] | MIC (Staphylococcus aureus) [µg/mL] | MIC (Pseudomonas aeruginosa [5]) [µg/mL] | ED50 (Mus musculus [3]) [mg/kg] | ED50 (Mus musculus [4]) [mg/kg] | ED50 (Mus musculus [6]) [mg/kg] | ED50 (Mus musculus [7]) [mg/kg]
Cc1cc(SCC2=C(C(=O)[O-])N3C(=O)[C@@H](NC(=O)/C(=N\OCCSc4nnc(-c5cc(O)c(O)cn5)o4)c4csc(N)n4)[C@H]3SC2)n2nc(CO)nc2n1.[Na+] | 0.2 | 0.39 | < 0.0063 | 6.25 |  |  |  |  | 
Nc1nc(/C(=N/OCc2cc(O)c(O)cn2)C(=O)[N-][C@@H]2C(=O)N3C(C(=O)[O-])=C(CSc4cc[n+](CCO)cc4)CS[C@H]23)cs1.[Na+] |  |  |  | 3.13 | 6.25 |  | > 40 | 0.86 | 
CC(C)(O/N=C(\C(=O)N[C@@H]1C(=O)N2C(C(=O)[O-])=C(C[n+]3ccccc3)CS[C@H]12)c1csc(N)n1)C(=O)O [CEFTAZIDIME] | 1.56 (≈ 2.85 µM) | 3.13 (≈ 5.73 µM) | 0.05 (≈ 0.0915 µM) | 3.13 (≈ 5.73 µM) |  | 55 | > 100 |  | 8.1
CO/N=C(\C(=O)N[C@@H]1C(=O)N2C(C(=O)[O-])=C(C[n+]3cccc4c3CCC4)CS[C@H]12)c1csc(N)n1 [CEFPIROME] |  |  |  |  |  |  |  | 1.5 | 
Nc1nc(/C(=N/OCCSc2nnc(-c3cc(O)c(O)cn3)o2)C(=O)N[C@@H]2C(=O)N3C(C(=O)[O-])=C(CSc4nnc(-c5ccncc5)o4)CS[C@H]23)cs1.[Na+] | 0.78 | 0.39 | ≤ 0.0063 | 6.25 |  |  |  |  | 
Nc1nc(/C(=N/OCCSc2nnc(-c3ccccn3)o2)C(=O)[N-][C@@H]2C(=O)N3C(C(=O)[O-])=C(CSc4cc[n+](CCO)cc4)CS[C@H]23)cs1.[Na+] |  |  |  | 0.39 | 100 |  | > 40 | 0.43 | 
Nc1nc(/C(=N/OCCSc2nnc(-c3cc(O)c(O)cn3)o2)C(=O)N[C@@H]2C(=O)N3C(C(=O)[O-])=C(CSc4cnns4)CS[C@H]23)cs1.[Na+] | 0.78 | 0.2 | ≤ 0.0063 | 3.13 |  |  |  |  | 
Nc1nc(/C(=N/OCCSc2nnc(-c3cc(O)c(O)cn3)o2)C(=O)N[C@@H]2C(=O)N3C(C(=O)[O-])=C(CSc4nnc(N)s4)CS[C@H]23)cs1.[Na+] | 0.2 | 0.2 | ≤ 0.0063 | 6.25 |  | 35 |  |  | > 20
CO/N=C(\C(=O)N[C@@H]1C(=O)N2C(C(=O)O)=C(COC(C)=O)CS[C@H]12)c1csc(N)n1 [CEFOTAXIME] | 25 (≈ 54.9 µM) | 25 (≈ 54.9 µM) | 0.0125 (≈ 0.0274 µM) | 1.56 (≈ 3.43 µM) |  |  |  | 3 | 4.6
Nc1nc(/C(=N/OCCSc2nnc(-c3cc(O)c(O)cn3)o2)C(=O)N[C@@H]2C(=O)N3C(C(=O)[O-])=C(CSc4nc5ccccc5s4)CS[C@H]23)cs1.[Na+] | 0.78 | 0.78 | 0.0125 | 3.13 |  | > 100 |  |  | 

Now from value to compound, other results behind:

MIC (Pseudomonas aeruginosa [1]) [µg/mL] | MIC (Pseudomonas aeruginosa [2]) [µg/mL] | MIC (Escherichia coli) [µg/mL] | MIC (Staphylococcus aureus) [µg/mL] | MIC (Pseudomonas aeruginosa [5]) [µg/mL] | Compound | ED50 (Mus musculus [3]) [mg/kg] | ED50 (Mus musculus [4]) [mg/kg] | ED50 (Mus musculus [6]) [mg/kg] | ED50 (Mus musculus [7]) [mg/kg]
1.56 | 0.39 | ≤ 0.0063 | 12.5 |  | Nc1nc(/C(=N/OCCSc2nnc(-c3cc(O)c(O)cn3)o2)C(=O)N[C@@H]2C(=O)N3C(C(=O)[O-])=C(CSc4cc[n+](CC(=O)[O-])cc4)CS[C@H]23)cs1.[Na+] | 25 |  |  | 
3.13 | 0.78 | 0.025 | 3.13 |  | Nc1nc(/C(=N/OCCSc2nnc(-c3cc(O)c(O)cn3)o2)C(=O)[N-][C@@H]2C(=O)N3C(C(=O)[O-])=C(C[n+]4ccccc4)CS[C@H]23)cs1.[Na+] |  |  |  | 
0.39 | 0.039 | ≤ 0.0063 | 6.25 |  | Nc1nc(/C(=N/OCCSc2nnc(-c3cc(O)c(O)cn3)o2)C(=O)N[C@@H]2C(=O)N3C(C(=O)[O-])=C(CSc4ccccn4)CS[C@H]23)cs1.[Na+] |  |  |  | 
0.78 | 3.13 | 0.025 | 6.25 |  | CN(C)CC[n+]1ccc(SCC2=C(C(=O)[O-])N3C(=O)[C@@H]([N-]C(=O)/C(=N\OCCSc4nnc(-c5cc(O)c(O)cn5)o4)c4csc(N)n4)[C@H]3SC2)cc1.[Na+] |  |  |  | 
3.13 | 0.39 | 0.0125 | 25 |  | Nc1nc(/C(=N/OCCSc2nnc(-c3cc(O)c(O)cn3)o2)C(=O)N[C@@H]2C(=O)N3C(C(=O)[O-])=C(C[n+]4ccc(C(=O)[O-])cc4)CS[C@H]23)cs1.[Na+] |  |  |  | 
0.39 | 0.78 | ≤ 0.0063 | 3.13 |  | Nc1nc(/C(=N/OCCSc2nnc(-c3cc(O)c(O)cn3)o2)C(=O)[N-][C@@H]2C(=O)N3C(C(=O)[O-])=C(CSc4cc[n+](CCO)cc4)CS[C@H]23)cs1.[Na+] | 4.2 | 7.2 | 0.86 | < 0.3
0.78 | 0.78 | 0.0125 | 3.13 |  | Nc1nc(/C(=N/OCCSc2nnc(-c3cc(O)c(O)cn3)o2)C(=O)[N-][C@@H]2C(=O)N3C(C(=O)[O-])=C(C[n+]4ccc(SCCO)cc4)CS[C@H]23)cs1.[Na+] |  |  |  | 
 |  |  | 0.39 | 0.39 | Nc1nc(/C(=N/OCCSc2nnc(-c3ccc(O)c(O)c3)o2)C(=O)[N-][C@@H]2C(=O)N3C(C(=O)[O-])=C(CSc4cc[n+](CCO)cc4)CS[C@H]23)cs1.[Na+] |  | 34 | 0.86 | 
3.13 | 1.56 | 0.025 | 6.25 |  | NC(=O)c1cc[n+](CC2=C(C(=O)[O-])N3C(=O)[C@@H]([N-]C(=O)/C(=N\OCCSc4nnc(-c5cc(O)c(O)cn5)o4)c4csc(N)n4)[C@H]3SC2)cc1.[Na+] |  |  |  | 
0.39 | 0.78 | ≤ 0.0063 | 3.13 |  | CC[n+]1ccc(SCC2=C(C(=O)[O-])N3C(=O)[C@@H]([N-]C(=O)/C(=N\OCCSc4nnc(-c5cc(O)c(O)cn5)o4)c4csc(N)n4)[C@H]3SC2)cc1.[Na+] | 19 |  |  | < 0.6
